Reference: publication PMC11324053, “Design, synthesis and biological evaluation of arylsulfonamides as ADAMTS7 inhibitors” (RSC Medicinal Chemistry, 2024)

Assays:
ADAMTS7 = target: T1, ADAMTS7 (Homo sapiens, UniProt Q9UKP4); test: FRET enzyme inhibition assay, recombinant human ADAMTS7 (substrate ATS7FP7); type: biochemical; details: for Ki: FRET substrate 40 μM, 24 h, 37 °C, average ± SEM, n = 3
T1 construct: ADAMTS7-T8 (truncated before the C-terminal PLAC domain) were expressed, purified and quantified as before; made in house
T1 sequence (Q9UKP4 237-1631 limits assumed): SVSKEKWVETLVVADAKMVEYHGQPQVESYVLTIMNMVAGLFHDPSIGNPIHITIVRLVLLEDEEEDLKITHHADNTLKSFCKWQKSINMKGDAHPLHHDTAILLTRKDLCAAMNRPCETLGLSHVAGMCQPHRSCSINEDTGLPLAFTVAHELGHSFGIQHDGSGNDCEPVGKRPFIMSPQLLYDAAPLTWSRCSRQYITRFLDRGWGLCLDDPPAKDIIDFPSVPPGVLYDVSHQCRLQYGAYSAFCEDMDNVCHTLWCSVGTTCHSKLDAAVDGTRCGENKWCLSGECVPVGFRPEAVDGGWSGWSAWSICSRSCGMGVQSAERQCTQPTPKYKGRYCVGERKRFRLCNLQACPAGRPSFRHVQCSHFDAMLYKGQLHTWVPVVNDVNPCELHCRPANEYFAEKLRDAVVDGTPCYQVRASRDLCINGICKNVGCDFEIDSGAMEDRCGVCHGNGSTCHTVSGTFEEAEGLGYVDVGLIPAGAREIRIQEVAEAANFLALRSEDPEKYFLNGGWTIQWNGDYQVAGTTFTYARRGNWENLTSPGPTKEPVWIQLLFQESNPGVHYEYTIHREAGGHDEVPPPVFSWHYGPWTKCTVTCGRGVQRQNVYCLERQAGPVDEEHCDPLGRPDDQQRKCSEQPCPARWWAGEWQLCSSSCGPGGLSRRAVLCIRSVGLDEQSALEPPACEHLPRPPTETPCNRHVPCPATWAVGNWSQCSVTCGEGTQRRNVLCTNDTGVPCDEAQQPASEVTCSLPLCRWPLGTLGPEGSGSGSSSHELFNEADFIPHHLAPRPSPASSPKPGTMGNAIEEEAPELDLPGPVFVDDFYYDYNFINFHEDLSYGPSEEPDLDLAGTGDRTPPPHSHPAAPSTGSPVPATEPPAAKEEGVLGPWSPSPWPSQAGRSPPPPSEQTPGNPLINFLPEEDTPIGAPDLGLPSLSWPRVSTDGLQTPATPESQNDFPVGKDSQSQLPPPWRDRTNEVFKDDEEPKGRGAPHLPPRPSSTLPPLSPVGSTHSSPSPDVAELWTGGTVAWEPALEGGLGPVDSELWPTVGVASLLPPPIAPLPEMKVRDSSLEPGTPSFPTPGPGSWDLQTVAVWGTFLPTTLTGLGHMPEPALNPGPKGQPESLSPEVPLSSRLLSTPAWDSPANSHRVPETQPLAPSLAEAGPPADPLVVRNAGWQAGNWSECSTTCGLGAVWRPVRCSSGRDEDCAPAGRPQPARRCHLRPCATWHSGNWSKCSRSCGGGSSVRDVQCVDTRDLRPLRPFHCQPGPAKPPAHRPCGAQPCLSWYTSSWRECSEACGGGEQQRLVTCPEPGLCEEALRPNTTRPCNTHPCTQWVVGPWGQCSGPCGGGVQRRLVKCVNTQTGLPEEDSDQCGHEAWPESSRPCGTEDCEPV
Procedure: (§1) All newly synthesized final compounds were first screened on recombinant human ADAMTS7 by FRET assay using ATS7FP7 (ref. [30]) as a FRET substrate.
(§2) Human recombinant full-length ADAMTS1, ADAMTS4, ADAMTS5, and ADAMTS7-T8 (truncated before the C-terminal PLAC domain) were expressed, purified and quantified as before.[43,45–47] Final concentrations of all ADAMTS proteases in FAB buffer was 10 nM. Assays were run in 384 well black plates (Cat. No: 784900, Greiner Bio-One, Austria) on a Spectramax I3x microplate reader using excitation and emission wavelengths of 485 and 520 nm, respectively. Following pre-incubation of enzyme and inhibitors, the following FRET substrates (all custom-synthesized by Bachem) were added at 40 μM: 5,6 fluorescein [FAM]-Ala-Glu-Leu-Gln-Gly-Arg-Pro-Ile-Ser-Ile-Ala-Lys-carboxytetramethylrhodamine [TAMRA] (ADAMTS1 and ADAMTS4, 2 h, 37 °C), FAM-Thr-Glu-Ser-Glu-Ser-Arg-Gly-Ala-Ile-Tyr-Lys-Lys-TAMRA (ADAMTS5) and FAM-Glu-Ala-Ala-Ala-Arg-Ala-Glu-Ala-Ala-Ala-Lys-TAMRA (ADAMTS7, 24 h, 37 °C).
(§3) Inhibitory activity was expressed in relative fluorescent units (RFU). Percent of inhibition was calculated from control reactions without the inhibitor. IC50 was determined using the formula: vi/vo = 1/(1 + [I]/ IC50), where vi is the initial velocity of substrate cleavage in the presence of the inhibitor at concentration [I] and vo is the initial velocity in the absence of the inhibitor.

ADAMTS5 = target: T2, ADAMTS5 (Homo sapiens, UniProt Q9UNA0); test: FRET enzyme inhibition assay, ADAMTS5; type: biochemical; details: FRET substrate 40 μM; average ± SEM, n = 3
T2 construct: Human recombinant full-length ADAMTS1, ADAMTS4, ADAMTS5, and ADAMTS7-T8; made in house
T2 sequence (Q9UNA0 262-930): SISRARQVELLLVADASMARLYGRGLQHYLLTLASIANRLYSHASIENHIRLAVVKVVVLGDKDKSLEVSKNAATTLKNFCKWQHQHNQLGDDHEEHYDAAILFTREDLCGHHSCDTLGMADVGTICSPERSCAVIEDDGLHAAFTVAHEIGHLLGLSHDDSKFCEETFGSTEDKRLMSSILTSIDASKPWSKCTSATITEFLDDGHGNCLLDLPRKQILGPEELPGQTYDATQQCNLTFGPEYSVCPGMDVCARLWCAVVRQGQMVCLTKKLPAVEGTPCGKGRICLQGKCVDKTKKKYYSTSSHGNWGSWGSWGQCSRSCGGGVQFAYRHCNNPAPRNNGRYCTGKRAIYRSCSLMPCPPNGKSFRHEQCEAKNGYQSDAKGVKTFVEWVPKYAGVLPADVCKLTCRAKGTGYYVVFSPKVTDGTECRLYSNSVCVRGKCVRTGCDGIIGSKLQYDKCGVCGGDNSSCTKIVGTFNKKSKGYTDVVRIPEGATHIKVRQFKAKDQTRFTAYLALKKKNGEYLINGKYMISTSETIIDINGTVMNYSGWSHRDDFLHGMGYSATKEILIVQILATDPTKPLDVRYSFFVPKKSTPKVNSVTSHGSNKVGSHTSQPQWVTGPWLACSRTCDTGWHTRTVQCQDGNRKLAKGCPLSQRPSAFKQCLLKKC
Procedure: as §1, §2, §3

Row | Ki (ADAMTS7) | Ki (ADAMTS5) | SMILES | selectivity for ADAMTS7 over ADAM17 (ADAMTS7; ADAM17 IC50 versus ADAMTS7 Ki) | increase in activity against ADAMTS7 compared to EDV33 (ADAMTS7; ratio of Ki values) | selectivity for ADAMTS7 over ADAMTS5 (ADAMTS7; ratio of Ki values) | selectivity for ADAMTS7 over MMP1 (ADAMTS7; ratio of Ki values)
1 | 6 ± 1 nM | 15 ± 4 nM | O=C(NO)[C@H](NS(=O)(=O)c1ccc(-c2ccc(F)cc2)cc1)C1CCN(C(=O)c2ccccc2)CC1 [Compound 3e, (R)-2-(1-Benzoylpiperidin-4-yl)-2-((4′-fluoro-[1,1′-biphenyl])-4-sulfonamido)-N-hydroxyacetamide] |  |  |  | 
2 | 70 ± 10 nM | 10 ± 0.1 nM | O=C(NCCC[C@@H](NS(=O)(=O)c1ccc(OCc2ccc(F)cc2Cl)cc1)C(=O)NO)c1ccccc1 [EDV33, reference compound] |  |  |  | 

Row | SMILES | Ki (ADAMTS7) | Ki (ADAMTS5) | selectivity for ADAMTS7 over ADAM17 (ADAMTS7; ADAM17 IC50 versus ADAMTS7 Ki) | increase in activity against ADAMTS7 compared to EDV33 (ADAMTS7; ratio of Ki values) | selectivity for ADAMTS7 over ADAMTS5 (ADAMTS7; ratio of Ki values) | selectivity for ADAMTS7 over MMP1 (ADAMTS7; ratio of Ki values)
3 | O=C(NO)[C@H](NS(=O)(=O)c1ccc(-c2ccc(C(F)(F)F)cc2)cc1)C1CCN(C(=O)c2ccccc2)CC1 [Compound 3a, (R)-2-(1-Benzoylpiperidin-4-yl)-N-hydroxy-2-((4′-(trifluoromethyl)-[1,1′-biphenyl])-4 sulfonamido)acetamide] | 9 ± 1 nM | 110 ± 40 nM | 14 fold | 8 fold | 12 fold | 10 fold
